Source: PubChem BioAssay (NCI)
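Grown in 96-well plates, cells were treated for 48 hours with each compound at five concentrations. Insufficient inhibition: endpoint recorded as highest concentration tested. The concentration for 50% growth inhibition is given as GI50. The concentration for full growth arrest is given as TGI.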

What was measured:
Assay in all cases: NCI anticancer screen, dose series, 48 h
SF-295 CNS = tested on: SF-295 CNS
SW-620 colon = tested on: SW-620 colon
A549 NSCLC = tested on: A549 NSCLC
HOP-92 NSCLC = tested on: HOP-92 NSCLC
HL-60(TB) leukemia = tested on: HL-60(TB) leukemia
OVCAR-3 ovarian = tested on: OVCAR-3 ovarian
LOX IMVI melanoma = tested on: LOX IMVI melanoma
RPMI-8226 leukemia = tested on: RPMI-8226 leukemia
HS 578T breast = tested on: HS 578T breast
T-47D breast = tested on: T-47D breast

Row | SMILES | TGI (SF-295 CNS) | TGI (SW-620 colon) | TGI (A549 NSCLC) | TGI (HOP-92 NSCLC) | TGI (HL-60(TB) leukemia) | TGI (OVCAR-3 ovarian) | TGI (LOX IMVI melanoma) | TGI (RPMI-8226 leukemia) | TGI (HS 578T breast) | TGI (T-47D breast) | GI50 (HS 578T breast) | GI50 (SF-295 CNS) | GI50 (SW-620 colon) | GI50 (A549 NSCLC) | GI50 (HOP-92 NSCLC) | GI50 (T-47D breast) | GI50 (OVCAR-3 ovarian) | GI50 (LOX IMVI melanoma) | GI50 (RPMI-8226 leukemia) | GI50 (HL-60(TB) leukemia)
1 | NC(=O)c1c([N+](=O)[O-])cc(C(F)(F)F)cc1[N+](=O)[O-] | > 100 µM | > 100 µM | > 100 µM | > 100 µM | 47.4 µM | 63.3 µM | > 100 µM | > 100 µM | – | – | – | – | – | – | – | – | – | – | – | –
2 | Cc1noc2c1C(=O)CCC2 | – | > 100 µM | – | > 100 µM | > 100 µM | > 100 µM | > 100 µM | > 100 µM | – | – | – | – | – | – | – | – | – | – | – | –
3 | NC1=NC(c2ccc(Cl)cc2)N(c2ccc(S(N)(=O)=O)cc2)C(N)=N1 (centres undefined) | > 100 µM | > 100 µM | > 100 µM | > 100 µM | – | > 100 µM | > 100 µM | > 100 µM | > 100 µM | > 100 µM | – | – | – | – | – | – | – | – | – | –
4 | Cc1ccc(-c2c3c(nn2-c2ccc(S(N)(=O)=O)cc2)-c2ccccc2C3)cc1 | 47.3 µM | 17 µM | 70.1 µM | 30.6 µM | – | 30 µM | 40.5 µM | 60.2 µM | 36.2 µM | > 100 µM | 13.5 µM | 20.7 µM | 4.4 µM | 23.4 µM | 13.9 µM | 71.3 µM | 15.6 µM | 18.2 µM | 18.4 µM | –
5 | CCC/C=C1\CCC(CN(C)C)C1=O (centres undefined) | > 55.3 µM | 11.6 µM | > 62.2 µM | 6.8 µM | 31.5 µM | 12.3 µM | 20.8 µM | 2.75 µM | – | – | – | – | – | – | – | – | – | – | – | –
6 | Oc1ccc(O)c(-c2cc(-c3ccc(Cl)cc3)nn2-c2ccccc2)c1 | 39.2 µM | 18.4 µM | 31 µM | 22.9 µM | 64.8 µM | 30.7 µM | – | 7.03 µM | 29.8 µM | – | 3.43 µM | 20 µM | 3.81 µM | 7.56 µM | 2.71 µM | – | 14.5 µM | – | 2.29 µM | 5.71 µM
7 | Cc1cccc(C(C)C)c1N1C(=O)C(=O)C(c2nc3ccccc3o2)C(=O)C1=O | > 100 µM | > 100 µM | > 100 µM | > 100 µM | 80.9 µM | > 100 µM | > 100 µM | – | – | – | – | – | – | – | – | – | – | – | – | –
8 | O=C(CC1(O)C(=O)Nc2ccc(Br)cc21)c1ccc(Cl)cc1Cl (centres undefined) | > 100 µM | > 100 µM | > 100 µM | – | 48.3 µM | > 100 µM | – | 50.7 µM | – | – | – | – | – | – | – | – | – | – | – | –
9 | O=[N+]([O-])c1ccc(-c2noc(-c3ccc(Cl)cc3)c2C2=NCCN2)cc1 | > 100 µM | > 100 µM | > 100 µM | – | > 100 µM | > 100 µM | > 100 µM | > 100 µM | – | – | – | – | – | – | – | – | – | – | – | –
10 | O=C(O)C1CC2(C1)CC(C(=O)O)C2 (centres undefined) | > 100 µM | > 100 µM | > 100 µM | – | – | > 100 µM | > 100 µM | > 100 µM | > 100 µM | > 100 µM | – | – | – | – | – | – | – | – | – | –
11 | C=C1C(=O)O[C@H]2[C@H]1CC/C(COC(=O)CCSCCC(=O)OC/C1=C/CC[C@@]3(C)O[C@H]3[C@H]3OC(=O)C(=C)[C@@H]3CC1)=C\CC[C@@]1(C)O[C@@H]21 | 3.94 µM | 2.02 µM | 7.56 µM | 2.7 µM | – | 1.69 µM | 1.6 µM | 1.83 µM | 24.5 µM | 3.21 µM | 3.18 µM | 1.77 µM | 0.556 µM | 2.54 µM | 1.26 µM | 1.3 µM | 0.451 µM | 0.44 µM | 0.383 µM | –
12 | CCOC(=O)c1c(C)n(Cc2ccccc2)c2c1cc(O)c1[nH]c(Cc3ccccc3)nc12 | 44.4 µM | > 60 µM | 65.7 µM | 68.8 µM | – | 44 µM | > 67.8 µM | > 100 µM | > 57.8 µM | > 36.6 µM | 9.53 µM | 11.3 µM | 22.1 µM | 12.4 µM | 20.2 µM | 9.74 µM | 11.4 µM | 13.8 µM | 11.5 µM | –
13 | CC(=O)NC1C(OCc2ccccc2)OC(CO)C(O)C1OC(C)C(=O)N[C@@H](C)C(=O)N[C@H](CCC(=O)OCCNc1c2ccccc2nc2cccc([N+](=O)[O-])c12)C(N)=O (some centres undefined) | 0.0339 µM | 0.00283 µM | 0.0173 µM | 0.00616 µM | 0.0564 µM | 0.00427 µM | – | > 0.1 µM | – | – | – | – | – | – | – | – | – | – | – | –
14 | COC(=O)C1=C(c2ccc(OC)c(OC)c2)OC(c2cc(OC)c(OC)c(OC)c2)C1 (centres undefined) | > 100 µM | > 100 µM | > 100 µM | 65.2 µM | – | > 100 µM | > 100 µM | > 100 µM | – | – | – | – | – | – | – | – | – | – | – | –
15 | CCN(CC)c1ccc(N=Nc2ccc([N+](=O)[O-])cc2OC(=O)/C=C/c2ccccc2)c(OC(=O)/C=C/c2ccccc2)c1 | > 100 µM | > 100 µM | > 100 µM | > 100 µM | > 44 µM | > 100 µM | > 100 µM | > 100 µM | – | – | – | – | – | – | – | – | – | – | – | –
16 | O=C1NC(=O)C(=Nc2cccc3c(=O)[nH][nH]c(=O)c23)C(c2nc3ccccc3s2)C1=O (centres undefined) | > 100 µM | > 100 µM | > 100 µM | > 100 µM | > 100 µM | > 100 µM | – | – | – | – | – | – | – | – | – | – | – | – | – | –
17 | Cc1ccc(/C=C2\CN(C(=O)C(Cl)Cl)C/C(=C\c3ccc(C)cc3)C2=O)cc1 | 0.665 µM | 0.234 µM | – | 3.95 µM | 1.33 µM | 0.483 µM | 0.199 µM | 0.484 µM | 3.71 µM | – | 0.343 µM | 0.223 µM | 0.0554 µM | 0.293 µM | 1.47 µM | – | 0.209 µM | 0.0621 µM | 0.0322 µM | 0.25 µM
18 | COC(=O)C(=CNC(N)=O)C(=O)OC | > 100 µM | > 100 µM | > 100 µM | > 100 µM | – | > 100 µM | > 100 µM | > 100 µM | > 100 µM | > 100 µM | – | – | – | – | – | – | – | – | – | –
19 | C[N+](C)(C)CC1CCC/C1=N/O (centres undefined) | > 100 µM | 19.5 µM | > 100 µM | > 100 µM | 35.3 µM | > 100 µM | 38.4 µM | 47 µM | – | – | – | – | – | – | – | – | – | – | – | –
20 | Cn1c(=O)c(NC(=O)C(Cl)(Cl)Cl)nc2ccccc21 | > 100 µM | > 100 µM | > 100 µM | – | > 100 µM | > 100 µM | > 100 µM | > 100 µM | – | – | – | – | – | – | – | – | – | – | – | –
21 | CN=C(NC(=S)N(C)C)N(C)C | > 100 µM | > 100 µM | > 100 µM | > 100 µM | > 100 µM | – | – | > 100 µM | – | – | – | – | – | – | – | – | – | – | – | –
